According to ChEMBL document CHEMBL2057121, “Selective non-lipid modulator of LPA5 activity in human platelets” (Bioorg Med Chem Lett, 2012):

Legend:
[1] = biological target: Lysophosphatidic acid receptor 1/3 (Homo sapiens, UniProt Q9UBY5+Q92633); test: Antagonist activity at LPA1/3 receptor in human isolated platelets assessed as inhibition of collagen-induced platelet aggregation after 3 mins; format: functional
[2] = biological target: Lysophosphatidic acid receptor 5 (Homo sapiens, UniProt Q9H1C0); test: Antagonist activity at human recombinant LPA5 receptor expressed in rat RH7777 cells assessed as inhibition of hexadecyl-LPA-induced effect; format: functional, cell-based
Lysophosphatidic acid receptor 5, sequence (Q9H1C0 whole entry): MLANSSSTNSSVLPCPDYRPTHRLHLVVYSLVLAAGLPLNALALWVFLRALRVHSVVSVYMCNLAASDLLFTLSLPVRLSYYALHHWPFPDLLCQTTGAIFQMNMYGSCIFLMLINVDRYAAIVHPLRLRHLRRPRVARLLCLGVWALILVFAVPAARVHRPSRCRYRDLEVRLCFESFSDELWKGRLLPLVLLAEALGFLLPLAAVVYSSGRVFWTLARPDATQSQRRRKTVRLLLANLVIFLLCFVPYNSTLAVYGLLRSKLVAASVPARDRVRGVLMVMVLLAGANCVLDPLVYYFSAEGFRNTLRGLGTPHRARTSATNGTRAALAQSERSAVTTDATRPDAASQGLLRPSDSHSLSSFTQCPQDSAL

- IC50 [1]: > 10000 nM
- IC50 [2]: 800 nM
Compound: COc1cccc(-n2nc(C(=O)O)cc2-c2ccc(C3CCCCC3)c(Cl)c2)c1
